The text below walks through data of patent US9242928B2, “Compound, kinesin spindle protein inhibitor, and application thereof” (FUJITSU LIMITED, priority 2010, dated 2016).

In this assay the target is T1, human KSP motor domain (Uniprot P52732, residues 1-387) (Homo sapiens, UniProt P52732).
T1 construct: human KSP motor domain (Uniprot P52732, residues 1-387); His6; made in house; host or cells: E. coli BL21 Star (DE3)
T1 sequence (P52732 1-387): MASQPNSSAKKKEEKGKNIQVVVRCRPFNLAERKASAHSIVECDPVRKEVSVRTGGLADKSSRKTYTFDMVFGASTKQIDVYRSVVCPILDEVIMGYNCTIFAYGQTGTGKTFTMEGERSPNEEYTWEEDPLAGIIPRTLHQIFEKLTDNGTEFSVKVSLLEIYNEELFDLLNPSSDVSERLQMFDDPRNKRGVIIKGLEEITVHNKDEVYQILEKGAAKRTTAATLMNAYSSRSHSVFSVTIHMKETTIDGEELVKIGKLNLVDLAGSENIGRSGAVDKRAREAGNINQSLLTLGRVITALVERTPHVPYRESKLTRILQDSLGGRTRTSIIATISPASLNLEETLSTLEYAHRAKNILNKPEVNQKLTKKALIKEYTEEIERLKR
Nature of the assay: Inhibitory activity against kinesin spindle protein (microtubule-stimulated ATPase, quinaldine red Pi detection, absorbance at 525 nm). The note with it: 30 nM kinesin spindle protein, 1 mM ATP, 37° C., 20 min. It counts as biochemical. The protocol: Each of the compounds represented by Structural Formulas (1) to (4) was measured for inhibitory activity against a kinesin spindle protein by the following method referring to the methods described in Elizabeth B. Cogan et al., Analytical Biochemistry, 1999, 271, pp. 29-35 and Keith W. Rickert et al., Archives of Biochemistry and Biophysics, 2008, 469, pp. 220-231.
The human KSP motor domain (Uniprot P52732, residues 1-387) was cloned into the pRSETa vector (product of Invitrogen Co., Ltd) and expressed in E. coli BL21 Star (DE3) (product of Invitrogen Co., Ltd) with His6 tag for purification.
Each of the compounds represented by Structural Formulas (1) to (4) was prepared in 100% by mass DMSO (dimethylsulfoxide) at 100-fold concentration (100×). Then, the resulting mixture was diluted with 1.00% by mass DMSO to each of 0.001 mM, 0.003 mM, 0.01 mM, 0.03 mM, 0.1 mM, 0.3 mM, 1 mM, 3 mM, 10 mM and 30 mM.
A reaction mixture having a formulation described in the following Table 1 was prepared. Specifically, 28.5 μL of water, 1 μL ([…]) of the above-purified kinesin spindle protein, 5 μL of a 10× reaction buffer (150 mM PIPES (1,4-piperazine ethanesulfonic acid) (pH 7.0), 10 mM magnesium chloride, 10 mM EGTA (glycol ether diamine tetraacetate)), 10 μL of 5× microtubules solution (330 μg/mL microtubules, 15 mM PIPES (pH 7.0), 1 mM magnesium chloride, 10 μM Taxol) and 0.5 μL of the above-prepared 100× compound (the compound represented by Structural Formula (1), (2), (3) or (4)) were mixed together to prepare 45 μL of a reaction mixture, which was incubated at 37° C. for 10 min. Then, 5 μL of a 100×ATP solution (10 mM ATP, 10 mM PIPES (pH 7.0)) was added to the reaction mixture to initiate the reaction. Immediately after that, the reaction mixture was incubated at 37° C. for 20 min. […]
After the reaction, 150 μL of Quench C buffer (the formulation of which is given below) was added the reaction mixture to terminate the reaction, followed by incubating at room temperature for 5 min. Then, the reaction mixture was measured for absorbance at 525 nm with a microplate reader (SpectraMax, product of Molecular Devices Co., Ltd.). […]
The kinesin spindle protein decomposes ATP into ADP and Pi (phosphoric acid). […] Thus, the amount of the formed Pi can be measured by measuring the absorbance at 525 nm. With the absorbance at 525 nm of the high control (the amount of the formed Pi) being 100, comparing the absorbance of the high control with absorbance of test groups to which the above compounds have been added can determine whether the activity of the kinesin spindle protein is inhibited.
That is, the inhibitory rate of the activity of the kinesin spindle protein can be calculated from the following calculation formula. […]

As to `CCN(CC)C(=O)CN(Cc1ccccc1)c1ccc2c(c1F)CCC2=O` [Structural Formula (2), 2-(benzyl(4-fluoro-1-oxo-2,3-dihydro-1H-inden-5-yl)amino)-N,N-diethylacetamide], the “Inhibitory rate (%)” value (compound concentration 88 μM) was 50%.
Take `CCN(CC)C(=O)CN(Cc1ccccc1)c1ccc2c(c1F)C=CC2(C)C` [Structural Formula (1)]: the “Inhibitory rate (%)” value (compound concentration 10 μM) was 44.5%.
In the case of `CCN(CC)C(=O)CN(Cc1ccccc1)c1ccc2c(c1)C=CC2C` (stereo not shown) [Structural Formula (3)], the “Inhibitory rate (%)” value (compound concentration 39 μM) was 50%.
As to `CC1C=Cc2cc(N(CC(=O)N(C)C)Cc3ccccc3)ccc21` (stereo not shown) [Structural Formula (4)], under “compound concentration 100 μM”, the “Inhibitory rate (%)” value is on record as 79.8%.
